Assay results published in BindingDB's records for patent US20250282798 (Medshine Discovery, 2025).

Target: Mitogen-activated protein kinase kinase kinase kinase 1 (Homo sapiens, UniProt Q92918)
Experiment: Kinase Activity Assay
Description: The compound was diluted 50-fold into the kinase reaction buffer, and the mixture was shaken on a shaker for 20 minutes. The kinase was prepared with the enzyme reaction buffer. 2 μL of kinase was added to each well of a reaction plate. 1 μL of the diluted compound in the buffer was added to each well. The plate was sealed with a sealing film, centrifuged at 1000 g for 30 seconds, and placed at room temperature for 10 minutes. The mixed solution of ATP/MBP was prepared with the enzyme reaction buffer. 2 μL of the mixed solution of ATP/MBP was added to the reaction plate. The plate was sealed with a sealing film, and centrifuged at 1000 g for 30 seconds. The mixture in the plate was reacted at room temperature for 60 minutes. […] The plate was incubated at 25° C. for 40 min. […] The plate was incubated at 25° C. for 40 min. The RLU (relative luminescence unit) signal was read with a BMG microplate reader, and the signal intensity was used to characterize the activity of the kinase.

Sequence of Mitogen-activated protein kinase kinase kinase kinase 1 (Q92918 whole entry): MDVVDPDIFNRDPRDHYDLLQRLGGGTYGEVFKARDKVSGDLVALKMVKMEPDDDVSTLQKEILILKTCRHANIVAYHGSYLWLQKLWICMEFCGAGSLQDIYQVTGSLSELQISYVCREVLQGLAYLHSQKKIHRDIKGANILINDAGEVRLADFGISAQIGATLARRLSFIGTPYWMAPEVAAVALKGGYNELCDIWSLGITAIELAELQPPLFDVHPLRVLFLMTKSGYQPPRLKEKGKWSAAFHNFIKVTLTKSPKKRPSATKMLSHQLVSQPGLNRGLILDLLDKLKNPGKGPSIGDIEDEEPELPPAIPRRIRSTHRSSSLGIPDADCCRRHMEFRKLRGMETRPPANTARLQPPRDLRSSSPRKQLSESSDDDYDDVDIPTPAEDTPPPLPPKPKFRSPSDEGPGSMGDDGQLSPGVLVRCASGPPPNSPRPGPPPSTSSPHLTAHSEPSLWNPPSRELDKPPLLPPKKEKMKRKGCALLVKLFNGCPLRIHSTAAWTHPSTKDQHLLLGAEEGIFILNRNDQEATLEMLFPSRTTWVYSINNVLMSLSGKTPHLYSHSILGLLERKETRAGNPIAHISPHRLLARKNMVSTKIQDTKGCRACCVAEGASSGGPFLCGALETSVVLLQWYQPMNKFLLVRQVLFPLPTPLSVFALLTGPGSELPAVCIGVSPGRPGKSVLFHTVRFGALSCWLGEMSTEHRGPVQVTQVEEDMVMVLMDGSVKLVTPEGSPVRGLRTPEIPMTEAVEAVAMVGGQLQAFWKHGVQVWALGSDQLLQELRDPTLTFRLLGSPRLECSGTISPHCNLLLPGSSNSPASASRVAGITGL

SMILES	IC50 [nM]
O=C1NCc2c(-c3cnc4cc(F)ccn34)ccc(Nc3ccc4c(n3)CNC(=O)C3COCC43)c21 (configuration not stated) [US20250282798, Compound 18]	0.2
Cn1ccc2c(-c3ccc(Nc4ccc5c(n4)CNC(=O)C4COCC54)c4c3CNC4=O)ccnc21 (configuration not stated) [US20250282798, Compound 23]	0.02
CN1Cc2nc(Nc3ccc(-c4ccnc5c4ccn5C)c4c3C(=O)NC4)ccc2N2CCOCC2C1 (configuration not stated) [US20250282798, Compound 25]	0.2
Cn1ccc2c(-c3ncc(Nc4ccc5c(n4)OC[C@H]4COCCN54)c4c3CNC4=O)ccnc21 [US20250282798, Compound 20]	0.3
COc1cccc(F)c1-c1ccc(Nc2ccc(N3CCOCC3)c(CN(C)C)n2)c2c1CNC2=O [US20250282798, Compound 15]	1.7
CN1Cc2nc(Nc3ccc(-c4cnc5cc(F)ccn45)c4c3C(=O)NC4)ccc2N2CCOCC2C1 (configuration not stated) [US20250282798, Compound 16]	0.8
CN1Cc2nc(Nc3ccc(-c4cnc5cc(F)ccn45)c4c3C(=O)NC4)ccc2C2COCC2C1 (configuration not stated) [US20250282798, Compound 17]	1.3
